From patent US20180343865A1, “HERBICIDAL COMPOSITIONS COMPRISING ISOXAZOLO[5,4-B]PYRIDINES” (BASF SE, priority 2015, published 2018) come the findings set out here.

Common to all, as to format: in vivo
One test relates to Chenopodium album. Put plainly: Greenhouse postemergence herbicidal activity on CHEAL, 20 DAT. As to the method: (§1) For the post emergence treatment, the plants were first grown to the 2 leaf station (GS 12) and applied at GS 12-19 depending on the species. The herbicidal compositions were suspended or emulsified in water as distribution medium and sprayed using finely distributing nozzles.
(§2) The plants have been cultivated due to their individual requirements at 10 to 25° C. and. 20 to 35° C. The plants were irrigated due to their necessity.
(§3) The respective stated components A), were formulated as a 5% by weight strength emulsion concentrate containing wettol EM 31 20% and Cyclohexanone 80%. The respective stated components B), were formulated as either emulsifiable concentrates (EC), soluble liquids (SL), suspension concentrates (SC) or soluble granules (SG) as indicated in the table below. Component A, component B and the solvent system are introduced into the spray liquor used for applying the active compound. In the examples, the solvent used was water containing 1% Dash (Agnique ME 181 37.5%, Lutensit A-EP 22.5%, and Oleic Acid 5%) and 2% ammonium suflate.
(§4) In the following experiments, the herbicidal activity for the individual herbicide compounds (solo and mixture applications), the herbicidal succession was assessed 20 days after treatment (DAT). The evaluation for the damage on undesired weeds caused by the chemical compositions was carried out using a scale from 0 to 100%, compared to the untreated control plants. Here, 0 means no damage and 100 means complete destruction of the plants. The plants used in the greenhouse experiments belonged to the following species:
(§5) The value E, which corresponds to the effect (in %) that is to be expected if the activity of the individual compounds is additive, was calculated using the method of S. R. Colby (1967) “Calculating synergistic and antagonistic responses of herbicide combinations”, Weeds 15, p. 22 ff. Colby calculation for 2 way mixtures:
(§6) where: • X=effect in percent using herbicide A at an application rate a; • Y=effect in percent using herbicide B at an application rate b; • E=expected effect (in %) of A+B at application rates a+b
(§7) If the value observed in this manner is higher than the value E calculated according to Colby, a synergistic effect is present.

For another test, the system named is Abutilon theoprasti. The test can be described thus: Greenhouse postemergence herbicidal activity on ABUTH, 20 DAT. The conditions noted are these: for inhibition at 62.5 g/ha: 62.5 gai/ha; for inhibition at 125 g/ha: 125 gai/ha. As to the method: as §1, §2, §3, §4, §5, §6, §7
The next test deals with Kochia scoparia. Put plainly: Greenhouse postemergence herbicidal activity on KCHSC, 20 DAT. As to the method: as §1, §2, §3, §4, §5, §6, §7
The subject of another test is Amaranthus retroflexus. The test can be described thus: Greenhouse postemergence herbicidal activity on AMARE, 20 DAT. The conditions noted are these: AMARE, postemergence. As to the method: as §1, §2, §3, §4, §5, §6, §7
Another test relates to Amaranthus palmeri. The test can be described thus: Greenhouse postemergence herbicidal activity on AMAPA, 20 DAT. Conditions: Amaranthus palmeri, post-emergence, 480 h; for inhibition at 62.5 g/ha: 62.5 gai/ha. On the procedure: as §1, §2, §3, §4, §5, §6, §7
The test system of a further test is Ipomoea hederacea. Put plainly: Greenhouse postemergence herbicidal activity on IPOHE, 20 DAT. As to the method:
as §1, §2, §3, §4, §5, §6, §7

The subject of the next test is Polygonum convolvulus. The test can be described thus: Greenhouse postemergence herbicidal activity on POLCO, 20 DAT. Conditions: POLCO, postemergence. As to the method:
as §1, §2, §3, §4, §5, §6, §7

The next test relates to Galium aparine. Put plainly: Greenhouse postemergence herbicidal activity on GALAP, 20 DAT. On the procedure: as §1, §2, §3, §4, §5, §6, §7
The next test relates to Stellaria media. Put plainly: Greenhouse postemergence herbicidal activity on STEME, 20 DAT. The conditions noted are these: Stellaria media, post-emergence, 480 h, STEME, postemergence, 20 DAT, read-out: % activity, solo bromoxynil. As to the method: as §1, §2, §3, §4, §5, §6, §7
Another test has as its system Sinapis arvensis. Put plainly: Greenhouse postemergence herbicidal activity on SINAR, 20 DAT. The conditions noted are these: Mutarda arvensis, post-emergence, 480 h, read-out: % activity, solo bromoxynil. On the procedure: as §1, §2, §3, §4, §5, §6, §7
The mark [1] stands for this setting: Abutilon, post-emergence, 480 h, 20 DAT, read-out: % activity, solo (I.B).
Setting [2] is: Abutilon, post-emergence, 480 h, 20 DAT, read-out: % activity, solo bromoxynil.

Structures are written as SMILES. Where two headings read alike, the source gives them in different places.

On to `O=C(O)c1cc(C2CC2)nc2onc(-c3ccc(OC(F)F)cc3)c12` [(I.B)], for which the inhibition at 31.25 g/ha in the test with Chenopodium album (Chenopodium album, post-emergence, 480 h, 31.25 gai/ha, 20 DAT, read-out: % activity, solo (I.B)) worked out at 53%; in the test on Abutilon theoprasti (Abutilon, post-emergence, 480 h, 31.25 gai/ha, 20 DAT, read-out: % activity, solo (I.B)), 70%; with Kochia scoparia (Bassia scoparia, post-emergence, 480 h, 31.25 gai/ha, 20 DAT, read-out: % activity, solo (I.B)), 43%; in the test with Amaranthus retroflexus (Amaranthus retroflexus, post-emergence, 480 h, 31.25 gai/ha, 20 DAT, read-out: % activity, solo (I.B)) it was 89%; in the test on Amaranthus palmeri (31.25 gai/ha, read-out: % activity, solo (I.B)) it was 70%. For the same compound, the inhibition at 62.5 g/ha in the test with Abutilon theoprasti (setting [1]) amounted to 75%; in the test on Amaranthus palmeri (read-out: % activity, solo (I.B)), 78%. Besides, the inhibition at 125 g/ha in the test with Abutilon theoprasti (setting [1]) was determined as 73%. Also, the inhibition at 15.6 g/ha with Amaranthus palmeri (15.6 gai/ha, read-out: % activity, solo (I.B)) was determined as 20%.

Consider `Cc1c(C(=O)c2cnn(C)c2O)ccc(S(C)(=O)=O)c1C1=NOCC1` [topramezone], for which the “% activity, solo application topramezone” value was found to be 30% in the test on Chenopodium album (6.25 gai/ha); 55% in the test on Chenopodium album (12.5 gai/ha); 55% with Chenopodium album (25 gai/ha); 73% with Chenopodium album (50 gai/ha); 23% with Ipomoea hederacea (6.25 gai/ha); 55% in the test with Ipomoea hederacea (12.5 gai/ha). Also, the “% activity, solo application topramezone” value in the test with Ipomoea hederacea (25 gai/ha) is 75%; in the test on Ipomoea hederacea (50 gai/ha), 88%; in the test with Polygonum convolvulus (6.25 gai/ha), 25%; in the test with Polygonum convolvulus (12.5 gai/ha), 25%; in the test with Polygonum convolvulus (25 gai/ha), 68%; in the test on Abutilon theoprasti (6.25 gai/ha) it was 93%. The “% activity, solo application topramezone” value is 20% in the test with Kochia scoparia (6.25 gai/ha); 43% in the test with Kochia scoparia (12.5 gai/ha); 75% in the test on Kochia scoparia (25 gai/ha); 90% in the test on Kochia scoparia (50 gai/ha); 98% in the test with Amaranthus retroflexus (25 gai/ha); 70% with Galium aparine (6.25 gai/ha). For the same compound, the “% activity, solo application topramezone” value in the test with Galium aparine (12.5 gai/ha) is given as 75%; in the test with Galium aparine (25 gai/ha), 70%; in the test with Galium aparine (50 gai/ha) it was 85%.

With `COCC(C)N(C(=O)CCl)c1c(C)csc1C` (stereo not shown) [DMTA, Dimethenamid], the inhibition at 350 g/ha with Chenopodium album (Chenopodium album, post-emergence, 480 h, 350 gai/ha, 20 DAT, read-out: % activity, solo DMTA) stood at 28%; in the test on Abutilon theoprasti (Abutilon, post-emergence, 480 h, 350 gai/ha, 20 DAT, read-out: % activity, solo DMTA) it was 0%; in the test on Amaranthus retroflexus (Amaranthus retroflexus, post-emergence, 480 h, 350 gai/ha, 20 DAT, read-out: % activity, solo DMTA), 45%; in the test with Amaranthus palmeri (350 gai/ha, read-out: % activity, solo DMTA) it was 20%. Also, the inhibition at 175 g/ha was found to be 0% with Abutilon theoprasti (Abutilon, post-emergence, 480 h, 175 gai/ha, 20 DAT, read-out: % activity, solo DMTA); 0% in the test with Kochia scoparia (Bassia scoparia, post-emergence, 480 h, 175 gai/ha, 20 DAT, read-out: % activity, solo DMTA); 35% in the test on Amaranthus retroflexus (Amaranthus retroflexus, post-emergence, 480 h, 175 gai/ha, 20 DAT, read-out: % activity, solo DMTA); 10% in the test with Amaranthus palmeri (175 gai/ha, read-out: % activity, solo DMTA). Besides, the “% activity, solo DMTA” value with Kochia scoparia (350 gai/ha, 20 DAT) turned out to be 5%.

`N#Cc1cc(Br)c(O)c(Br)c1` [bromoxynil]: the inhibition at 10.5 g/ha with Chenopodium album (Chenopodium album, post-emergence, 480 h, 10.5 gai/ha, 20 DAT, read-out: % activity, solo bromoxynil) stood at 53%; with Ipomoea hederacea (Ipomoea hederacea, post-emergence, 480 h, 10.5 gai/ha, 20 DAT, read-out: % activity, solo bromoxynil) it was 65%; with Abutilon theoprasti (Abutilon, post-emergence, 480 h, 10.5 gai/ha, 20 DAT, read-out: % activity, solo bromoxynil), 68%; in the test on Amaranthus retroflexus (Amaranthus retroflexus, post-emergence, 480 h, 10.5 gai/ha, 20 DAT, read-out: % activity, solo bromoxynil) it was 28%; in the test with Amaranthus palmeri (10.5 gai/ha, read-out: % activity, solo bromoxynil), 58%. The inhibition at 21 g/ha in the test with Chenopodium album (Chenopodium album, post-emergence, 480 h, 21 gai/ha, 20 DAT, read-out: % activity, solo bromoxynil) was 80%; in the test on Ipomoea hederacea (Ipomoea hederacea, post-emergence, 480 h, 21 gai/ha, 20 DAT, read-out: % activity, solo bromoxynil), 65%. Also, the inhibition at 62.5 g/ha in the test on Chenopodium album (Chenopodium album, post-emergence, 480 h, 62.5 gai/ha, 20 DAT, read-out: % activity, solo bromoxynil) was 45%; in the test with Stellaria media (62.5 gai/ha), 0%; in the test with Abutilon theoprasti (setting [2]), 73%; in the test on Kochia scoparia (Bassia scoparia, post-emergence, 480 h, 62.5 gai/ha, 20 DAT, read-out: % activity, solo bromoxynil), 50%; in the test with Sinapis arvensis (62.5 gai/ha), 70%; in the test on Amaranthus palmeri (read-out: % activity, solo bromoxynil), 83%. Further, the inhibition at 62.5 g/ha in the test on Galium aparine (Galium aparine, post-emergence, 480 h, 62.5 gai/ha, 20 DAT, read-out: % activity, solo bromoxynil) worked out at 89%. In addition, the inhibition at 125 g/ha stood at 85% in the test with Chenopodium album (Chenopodium album, post-emergence, 480 h, 125 gai/ha, 20 DAT, read-out: % activity, solo bromoxynil); 72% in the test with Ipomoea hederacea (Ipomoea hederacea, post-emergence, 480 h, 125 gai/ha, 20 DAT, read-out: % activity, solo bromoxynil); 0% in the test on Stellaria media (125 gai/ha); 90% with Abutilon theoprasti (setting [2]); 80% in the test on Amaranthus retroflexus (Amaranthus retroflexus, post-emergence, 480 h, 125 gai/ha, 20 DAT, read-out: % activity, solo bromoxynil); 70% in the test on Galium aparine (Galium aparine, post-emergence, 480 h, 125 gai/ha, 20 DAT, read-out: % activity, solo bromoxynil). In addition, the inhibition at 250 g/ha worked out at 95% in the test on Chenopodium album (Chenopodium album, post-emergence, 480 h, 250 gai/ha, 20 DAT, read-out: % activity, solo bromoxynil); 0% in the test on Stellaria media (250 gai/ha); 90% with Abutilon theoprasti (Abutilon, post-emergence, 480 h, 250 gai/ha, 20 DAT, read-out: % activity, solo bromoxynil); 92% with Amaranthus retroflexus (Amaranthus retroflexus, post-emergence, 480 h, 250 gai/ha, 20 DAT, read-out: % activity, solo bromoxynil); 95% with Sinapis arvensis (250 gai/ha).
